{"source": "PubChem BioAssay AID328", "about": "(DTP/NCI, 2004)", "tested_on": "BDF1 mice, P388 leukemia ip, median survival T/C", "assay": "NCI In Vivo Anticancer Drug Screen. Data for tumor model P388 Leukemia (intraperitoneal) in B6D2F1 (BDF1) mice", "conditions": "endpoint: median survival time, higher = longer survival", "outline": "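T/C = treated-group survival ÷ vehicle-control survival; tumour transplanted into mice before dosing.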", "key": {"[1]": {"conditions": "dose: 3.13 mg/kg/injection, schedule: Q04DX003 (ip), vehicle: other"}, "[2]": {"conditions": "dose: 6.25 mg/kg/injection, schedule: Q04DX003 (ip), vehicle: other"}, "[3]": {"conditions": "dose: 100.0 mg/kg/injection, schedule: Q04DX003 (ip), vehicle: Klucel (hydroxypropylcellulose) (HPC)"}, "[4]": {"conditions": "dose: 200.0 mg/kg/injection, schedule: Q04DX003 (ip), vehicle: Klucel (hydroxypropylcellulose) (HPC)"}, "[5]": {"conditions": "dose: 400.0 mg/kg/injection, schedule: Q04DX003 (ip), vehicle: Klucel (hydroxypropylcellulose) (HPC)"}, "[6]": {"conditions": "dose: 100.0 mg/kg/injection, schedule: Q04DX003 (ip), vehicle: saline with Tween-80"}, "[7]": {"conditions": "dose: 200.0 mg/kg/injection, schedule: Q04DX003 (ip), vehicle: saline with Tween-80"}, "[8]": {"conditions": "dose: 400.0 mg/kg/injection, schedule: Q04DX003 (ip), vehicle: saline with Tween-80"}, "[9]": {"conditions": "dose: 50.0 mg/kg/injection, schedule: Q01DX009 (ip), vehicle: saline with Tween-80"}, "[10]": {"conditions": "dose: 200.0 mg/kg/injection, schedule: Q01DX009 (ip), vehicle: saline with Tween-80"}}, "note": "Toxic doses and inconclusive results are not listed. Residues, ends and D or L forms follow the SMILES beside them. *: point of attachment. Cbz = O=C(OCc1ccccc1)*", "data": [{"smiles": "CCC[CH2][Sn](=[S])[CH2]CCC", "values": [{"measurement": "T/C", "setting": "dose: 0.59 mg/kg/injection, schedule: Q01DX009 (ip), vehicle: other", "result": "111 % of control"}, {"measurement": "T/C", "setting": "dose: 1.33 mg/kg/injection, schedule: Q01DX009 (ip), vehicle: other", "result": "115 % of control"}, {"measurement": "T/C", "setting": "dose: 1.56 mg/kg/injection, schedule: Q04DX003 (ip), vehicle: other", "result": "109 % of control"}, {"measurement": "T/C", "setting": "dose: 2.66 mg/kg/injection, schedule: Q04DX003 (ip), vehicle: other", "result": "109 % of control"}, {"measurement": "T/C", "setting": "[1]", "result": "116 % of control"}, {"measurement": "T/C", "setting": "[2]", "result": "156 % of control"}, {"measurement": "T/C", "setting": "dose: 200.0 mg/kg/injection, schedule: Q01DX010 (ip), vehicle: carboxymethylcellulose (CMC)", "result": "110 % of control"}]}, {"smiles": "COc1ccc(OC)c(/C=C/C(=O)c2ccc(Cl)cc2)c1", "values": [{"measurement": "T/C", "setting": "[3]", "result": "104 % of control"}, {"measurement": "T/C", "setting": "[4]", "result": "95 % of control"}, {"measurement": "T/C", "setting": "[5]", "result": "104 % of control"}]}, {"smiles": "COC(=O)C1C2CCc3cc(OC)ccc3C2CC(=O)C1(C)C(=O)OC", "note": "(stereo not drawn)", "values": [{"measurement": "T/C", "setting": "dose: 100.0 mg/kg/injection, schedule: Q04DX003 (sc), vehicle: steriod suspending solution", "result": "109 % of control"}, {"measurement": "T/C", "setting": "dose: 200.0 mg/kg/injection, schedule: Q04DX003 (sc), vehicle: steriod suspending solution", "result": "90 % of control"}, {"measurement": "T/C", "setting": "dose: 400.0 mg/kg/injection, schedule: Q04DX003 (sc), vehicle: steriod suspending solution", "result": "95 % of control"}]}, {"smiles": "OC1C2CC3C1C3C2O", "note": "(stereo not drawn)", "values": [{"measurement": "T/C", "setting": "[6]", "result": "86 % of control"}, {"measurement": "T/C", "setting": "[7]", "result": "100 % of control"}, {"measurement": "T/C", "setting": "[8]", "result": "104 % of control"}]}, {"smiles": "CCOC(=O)CNC(=O)C(CC(C)C)NC(=O)C1CCCN1C(=O)OCc1ccccc1", "note": "(stereo not drawn) (Cbz-Pro-Leu-Gly-OEt; configuration not given here)", "values": [{"measurement": "T/C", "setting": "dose: 12.5 mg/kg/injection, schedule: Q01DX009 (ip), vehicle: Klucel (hydroxypropylcellulose) (HPC)", "result": "124 % of control"}, {"measurement": "T/C", "setting": "dose: 25.0 mg/kg/injection, schedule: Q01DX009 (ip), vehicle: Klucel (hydroxypropylcellulose) (HPC)", "result": "89 % of control"}, {"measurement": "T/C", "setting": "dose: 50.0 mg/kg/injection, schedule: Q01DX009 (ip), vehicle: Klucel (hydroxypropylcellulose) (HPC)", "result": "95 % of control"}, {"measurement": "T/C", "setting": "[3]", "result": "87 % of control"}, {"measurement": "T/C", "setting": "[4]", "result": "91 % of control"}, {"measurement": "T/C", "setting": "[5]", "result": "87 % of control"}]}, {"smiles": "Cc1c2oc3c(C)ccc(C(=O)NCCc4ccco4)c3nc-2c(C(=O)NCCc2ccco2)c(N)c1=O", "values": [{"measurement": "T/C", "setting": "[6]", "result": "102 % of control"}, {"measurement": "T/C", "setting": "[7]", "result": "99 % of control"}, {"measurement": "T/C", "setting": "[8]", "result": "96 % of control"}]}, {"smiles": "C=CC(C)(C(=O)O)C(C)C", "note": "(stereo not drawn)", "values": [{"measurement": "T/C", "setting": "[9]", "result": "101 % of control"}, {"measurement": "T/C", "setting": "dose: 100.0 mg/kg/injection, schedule: Q01DX009 (ip), vehicle: saline with Tween-80", "result": "100 % of control"}, {"measurement": "T/C", "setting": "[10]", "result": "97 % of control"}]}, {"smiles": "COc1ccc(OC)c(NC(=O)C2CC2)c1", "values": [{"measurement": "T/C", "setting": "dose: 75.0 mg/kg/injection, schedule: Q01DX009 (ip), vehicle: saline with Tween-80", "result": "100 % of control"}, {"measurement": "T/C", "setting": "dose: 100.0 mg/kg/injection, schedule: Q04DX003 (ip), vehicle: saline sonified", "result": "109 % of control"}, {"measurement": "T/C", "setting": "dose: 150.0 mg/kg/injection, schedule: Q01DX009 (ip), vehicle: saline with Tween-80", "result": "100 % of control"}, {"measurement": "T/C", "setting": "dose: 200.0 mg/kg/injection, schedule: Q04DX003 (ip), vehicle: saline sonified", "result": "113 % of control"}, {"measurement": "T/C", "setting": "dose: 300.0 mg/kg/injection, schedule: Q01DX009 (ip), vehicle: saline with Tween-80", "result": "100 % of control"}, {"measurement": "T/C", "setting": "dose: 400.0 mg/kg/injection, schedule: Q04DX003 (ip), vehicle: saline sonified", "result": "100 % of control"}]}, {"smiles": "CC(=O)C1(O)Cc2c(O)c3c(c(O)c2C(O)C1)C(=O)c1c(OC(C)C)cccc1C3=O", "note": "(stereo not drawn)", "values": [{"measurement": "T/C", "setting": "[1]", "result": "108 % of control"}, {"measurement": "T/C", "setting": "dose: 3.13 mg/kg/injection, schedule: Q04DX009 (ip), vehicle: other", "result": "101 % of control"}, {"measurement": "T/C", "setting": "[2]", "result": "105 % of control"}, {"measurement": "T/C", "setting": "dose: 6.25 mg/kg/injection, schedule: Q04DX009 (ip), vehicle: other", "result": "92 % of control"}, {"measurement": "T/C", "setting": "dose: 12.5 mg/kg/injection, schedule: Q04DX003 (ip), vehicle: other", "result": "100 % of control"}, {"measurement": "T/C", "setting": "dose: 12.5 mg/kg/injection, schedule: Q04DX009 (ip), vehicle: other", "result": "110 % of control"}, {"measurement": "T/C", "setting": "dose: 25.0 mg/kg/injection, schedule: Q04DX003 (ip), vehicle: other", "result": "105 % of control"}, {"measurement": "T/C", "setting": "dose: 25.0 mg/kg/injection, schedule: Q04DX009 (ip), vehicle: other", "result": "110 % of control"}, {"measurement": "T/C", "setting": "dose: 50.0 mg/kg/injection, schedule: Q04DX003 (ip), vehicle: other", "result": "101 % of control"}, {"measurement": "T/C", "setting": "dose: 50.0 mg/kg/injection, schedule: Q04DX009 (ip), vehicle: other", "result": "99 % of control"}]}, {"smiles": "COC(=O)C(Cl)(Cl)N=Nc1c(Cl)cc(Cl)c(C)c1Cl", "values": [{"measurement": "T/C", "setting": "dose: 25.0 mg/kg/injection, schedule: Q01DX009 (ip), vehicle: saline with Tween-80", "result": "119 % of control"}, {"measurement": "T/C", "setting": "[9]", "result": "124 % of control"}, {"measurement": "T/C", "setting": "[10]", "result": "89 % of control"}]}, {"smiles": "c1ccc2c(c1)ccc1cc3cc(NCCCCNc4ccc5nc6c(ccc7ccccc76)cc5c4)ccc3nc12", "values": [{"measurement": "T/C", "setting": "dose: 1.56 mg/kg/injection, schedule: Q01DX009 (ip), vehicle: saline with Tween-80", "result": "108 % of control"}, {"measurement": "T/C", "setting": "dose: 3.13 mg/kg/injection, schedule: Q01DX009 (ip), vehicle: saline with Tween-80", "result": "105 % of control"}, {"measurement": "T/C", "setting": "dose: 6.25 mg/kg/injection, schedule: Q01DX009 (ip), vehicle: saline with Tween-80", "result": "108 % of control"}]}, {"smiles": "COc1ccccc1NC(=O)O/N=C/c1ccccn1", "values": [{"measurement": "T/C", "setting": "dose: 100.0 mg/kg/injection, schedule: Q01DX001 (ip), vehicle: other", "result": "100 % of control"}, {"measurement": "T/C", "setting": "dose: 200.0 mg/kg/injection, schedule: Q01DX001 (ip), vehicle: other", "result": "95 % of control"}, {"measurement": "T/C", "setting": "dose: 400.0 mg/kg/injection, schedule: Q01DX001 (ip), vehicle: other", "result": "95 % of control"}]}]}
